According to patent US9695155B2, “Herbicidal substituted pyrimidinyloxy benzene compounds” (E. I. DU PONT DE NEMOURS AND COMPANY, priority 2013, dated 2017):

Tests used:
[1] = tested on: large (Lg) crabgrass; test: Test A preemergence; type: in vivo, Digitaria sanguinalis; settings: for Crabgrass, Large plant response rating: approx. 10 days
Source text: (§1) Seeds of plant species selected from barnyardgrass (Echinochloa crus-galli), kochia (Kochia scoparia), ragweed (common ragweed, Ambrosia elatior), Italian ryegrass (Lolium multiflorum), large (Lg) crabgrass (Digitaria sanguinalis), giant foxtail (Setaria faberii), morningglory (Ipomoea spp.), pigweed (Amaranthus retroflexus), velvetleaf (Abutilon theophrasti), wheat (Triticum aestivum), and corn (Zea mays) were planted into a blend of loam soil and sand and treated preemergence with a directed soil spray using test chemicals formulated in a non-phytotoxic solvent mixture which included a surfactant.
(§2) At the same time, plants selected from these crop and weed species and also blackgrass (Alopecurus myosuroides), and galium (catchweed bedstraw, Galium aparine) were planted in pots containing the same blend of loam soil and sand and treated with postemergence applications of test chemicals formulated in the same manner. Plants ranged in height from 2 to 10 cm and were in the one- to two-leaf stage for the postemergence treatment. Treated plants and untreated controls were maintained in a greenhouse for approximately 10 days, after which time all treated plants were compared to untreated controls and visually evaluated for injury. Plant response ratings, summarized in Table A, are based on a 0 to 100 scale where 0 is no effect and 100 is complete control. A dash (-) response means no test result.

[2] = tested on: large (Lg) crabgrass; test: Test A postemergence; type: in vivo, Digitaria sanguinalis
Source text: as §1, §2

[3] = tested on: giant foxtail; test: Test A postemergence; type: in vivo, Setaria faberii
Source text: as §1, §2

[4] = tested on: giant foxtail; test: Test A preemergence; type: in vivo, Setaria faberii; settings: for Foxtail, Giant plant response rating: 0 to 100 scale, 0 no effect, 100 complete control, approx. 10 days
Source text: as §1, §2

[5] = tested on: morningglory; test: Test A preemergence; type: in vivo, Ipomoea spp.; settings: for Morningglory plant response rating: 0 to 100 scale, 0 no effect, 100 complete control, approx. 10 days
Source text: as §1, §2

[6] = tested on: wheat; test: Test A postemergence; type: in vivo, Triticum aestivum
Source text: as §1, §2

[7] = tested on: wheat; test: Test A preemergence; type: in vivo, Triticum aestivum; settings: for Wheat plant response rating: 0 to 100 scale, 0 no effect, 100 complete control, approx. 10 days
Source text: as §1, §2

[8] = tested on: pigweed; test: Test A preemergence; type: in vivo, Amaranthus retroflexus; settings: for Pigweed plant response rating: 0 to 100 scale, 0 no effect, 100 complete control, approx. 10 days
Source text: as §1, §2

[9] = tested on: corn; test: Test A preemergence; type: in vivo, Zea mays; settings: for Corn plant response rating: approx. 10 days
Source text: as §1, §2

[10] = tested on: velvetleaf; test: Test A preemergence; type: in vivo, Abutilon theophrasti; settings: for Velvetleaf plant response rating: 0 to 100 scale, 0 no effect, 100 complete control, approx. 10 days
Source text: as §1, §2

[11] = tested on: velvetleaf; test: Test A postemergence; type: in vivo, Abutilon theophrasti
Source text: as §1, §2

[12] = tested on: barnyardgrass; test: Test A postemergence; type: in vivo, Echinochloa crus-galli
Source text: as §1, §2

[13] = tested on: morningglory; test: Test A postemergence; type: in vivo, Ipomoea spp.
Source text: as §1, §2

[14] = tested on: corn; test: Test A postemergence; type: in vivo, Zea mays
Source text: as §1, §2

[15] = tested on: pigweed; test: Test A postemergence; type: in vivo, Amaranthus retroflexus
Source text: as §1, §2

[16] = tested on: barnyardgrass; test: Test A preemergence; type: in vivo, Echinochloa crus-galli; settings: for Barnyardgrass plant response rating: approx. 10 days
Source text: as §1, §2

[17] = 500 g ai/ha, 0 to 100 scale, 0 no effect, 100 complete control
[18] = 500 g ai/ha, 0 to 100 scale where 0 is no effect and 100 is complete control
[19] = 125 g ai/ha, 0 to 100 scale where 0 is no effect and 100 is complete control
[20] = 1000 g ai/ha, 0 to 100 scale, 0 no effect, 100 complete control

## FC(F)(F)Oc1cccc(Oc2ncc(Cl)cn2)c1-n1cc(Br)cn1 [Compound 78]
[1]; [17]
  Crabgrass, Large plant response rating: 100
[2]; [17]
  Plant response rating, Crabgrass, Large: 100
[3]; [18]
  Plant response rating, Foxtail, Giant: 90
[4]; 500 g ai/ha
  Foxtail, Giant plant response rating: 100
[5]; 500 g ai/ha
  Morningglory plant response rating: 20
[6]; [18]
  Plant response rating, Wheat: 20
[7]; 500 g ai/ha
  Wheat plant response rating: 10
[8]; 500 g ai/ha
  Pigweed plant response rating: 100
[9]; [17]
  Corn plant response rating: 10
[10]; 500 g ai/ha
  Velvetleaf plant response rating: 50
[11]; [18]
  Plant response rating, Velvetleaf: 100
[12]; [17]
  Plant response rating, Barnyardgrass: 50
[13]; [18]
  Plant response rating, Morningglory: 90
[14]; [17]
  Plant response rating, Corn: 30
[15]; [18]
  Plant response rating, Pigweed: 100
[16]; [17]
  Barnyardgrass plant response rating: 80

## COc1cccc(-n2cc(Br)cn2)c1Oc1ncc(Cl)cn1 [Compound 41]
[1]; [19]
  Plant response rating, Crabgrass, Large: 30
[1]; [17]
  Crabgrass, Large plant response rating: 70
[2]; [19]
  Plant response rating, Crabgrass, Large: 20
[2]; [17]
  Plant response rating, Crabgrass, Large: 70
[3]; [19]
  Plant response rating, Foxtail, Giant: 20
[3]; [17]
  Plant response rating, Foxtail, Giant: 80
[4]; [19]
  Plant response rating, Foxtail, Giant: 10
[4]; 500 g ai/ha
  Foxtail, Giant plant response rating: 80
[5]; [19]
  Plant response rating, Morningglory: 0
[5]; 500 g ai/ha
  Morningglory plant response rating: 0
[6]; [19]
  Plant response rating, Wheat: 0
[6]; [17]
  Plant response rating, Wheat: 0
[7]; [19]
  Plant response rating, Wheat: 0
[7]; 500 g ai/ha
  Wheat plant response rating: 0
[8]; [19]
  Plant response rating, Pigweed: 70
[8]; 500 g ai/ha
  Pigweed plant response rating: 100
[9]; [19]
  Plant response rating, Corn: 0
[9]; [17]
  Corn plant response rating: 0
[10]; [19]
  Plant response rating, Velvetleaf: 60
[10]; 500 g ai/ha
  Velvetleaf plant response rating: 70
[11]; [19]
  Plant response rating, Velvetleaf: 70
[11]; [17]
  Plant response rating, Velvetleaf: 100
[12]; [19]
  Plant response rating, Barnyardgrass: 10
[12]; [17]
  Plant response rating, Barnyardgrass: 50
[13]; [19]
  Plant response rating, Morningglory: 20
[13]; [17]
  Plant response rating, Morningglory: 30
[14]; [19]
  Plant response rating, Corn: 0
[14]; [17]
  Plant response rating, Corn: 20
[15]; [19]
  Plant response rating, Pigweed: 50
[15]; [17]
  Plant response rating, Pigweed: 80
[16]; [19]
  Plant response rating, Barnyardgrass: 10
[16]; [17]
  Barnyardgrass plant response rating: 50

## N#Cc1cnn(-c2ccccc2Oc2ncc(Cl)cn2)n1 [Compound 55]
[1]; [20]
  Plant response rating, Crabgrass, Large: 90
[2]; [20]
  Plant response rating, Crabgrass, Large: 40
[3]; [20]
  Plant response rating, Foxtail, Giant: 60
[4]; 1000 g ai/ha
  Foxtail, Giant plant response rating: 90
[5]; 1000 g ai/ha
  Morningglory plant response rating: 0
[6]; [20]
  Plant response rating, Wheat: 0
[7]; 1000 g ai/ha
  Wheat plant response rating: 0
[8]; 1000 g ai/ha
  Pigweed plant response rating: 90
[9]; [20]
  Plant response rating, Corn: 0
[10]; 1000 g ai/ha
  Velvetleaf plant response rating: 100
[11]; [20]
  Plant response rating, Velvetleaf: 100
[12]; [20]
  Plant response rating, Barnyardgrass: 10
[13]; [20]
  Plant response rating, Morningglory: 80
[14]; [20]
  Plant response rating, Corn: 20
[15]; [20]
  Plant response rating, Pigweed: 90
[16]; [20]
  Plant response rating, Barnyardgrass: 40

## Clc1cnc(Oc2ccccc2-n2cc(Cl)nn2)nc1 [Compound 224]
[1]; [20]
  Crabgrass, Large plant response rating: 100
[2]; [20]
  Plant response rating, Crabgrass, Large: 80
[3]; [20]
  Plant response rating, Foxtail, Giant: 90
[4]; 1000 g ai/ha
  Foxtail, Giant plant response rating: 100
[5]; 1000 g ai/ha
  Morningglory plant response rating: 90
[6]; [20]
  Plant response rating, Wheat: 60
[7]; 1000 g ai/ha
  Wheat plant response rating: 60
[8]; 1000 g ai/ha
  Pigweed plant response rating: 100
[9]; [20]
  Corn plant response rating: 40
[10]; 1000 g ai/ha
  Velvetleaf plant response rating: 100
[11]; [20]
  Plant response rating, Velvetleaf: 100
[12]; [20]
  Plant response rating, Barnyardgrass: 90
[13]; [20]
  Plant response rating, Morningglory: 100
[14]; [20]
  Plant response rating, Corn: 50
[15]; [20]
  Plant response rating, Pigweed: 100
[16]; [20]
  Barnyardgrass plant response rating: 100

## Fc1cnc(Oc2ccccc2-n2cccn2)nc1 [Compound 14]
[1]; [20]
  Plant response rating, Crabgrass, Large: 90
[2]; [20]
  Plant response rating, Crabgrass, Large: 30
[3]; [20]
  Plant response rating, Foxtail, Giant: 40
[4]; 1000 g ai/ha
  Foxtail, Giant plant response rating: 90
[5]; 1000 g ai/ha
  Morningglory plant response rating: 20
[6]; [20]
  Plant response rating, Wheat: 20
[7]; 1000 g ai/ha
  Wheat plant response rating: 20
[8]; 1000 g ai/ha
  Pigweed plant response rating: 100
[9]; [20]
  Plant response rating, Corn: 0
[10]; 1000 g ai/ha
  Velvetleaf plant response rating: 90
[11]; [20]
  Plant response rating, Velvetleaf: 90
[12]; [20]
  Plant response rating, Barnyardgrass: 20
[13]; [20]
  Plant response rating, Morningglory: 70
[14]; [20]
  Plant response rating, Corn: 20
[15]; [20]
  Plant response rating, Pigweed: 100
[16]; [20]
  Plant response rating, Barnyardgrass: 30

## N#Cc1cnn(-c2ccccc2Oc2ncc(Br)cn2)n1 [Compound 56]
[1]; [20]
  Plant response rating, Crabgrass, Large: 80
[2]; [20]
  Plant response rating, Crabgrass, Large: 40
[3]; [20]
  Plant response rating, Foxtail, Giant: 30
[4]; 1000 g ai/ha
  Foxtail, Giant plant response rating: 30
[5]; 1000 g ai/ha
  Morningglory plant response rating: 0
[6]; [20]
  Plant response rating, Wheat: 0
[7]; 1000 g ai/ha
  Wheat plant response rating: 0
[8]; 1000 g ai/ha
  Pigweed plant response rating: 100
[9]; [20]
  Plant response rating, Corn: 20
[10]; 1000 g ai/ha
  Velvetleaf plant response rating: 90
[11]; [20]
  Plant response rating, Velvetleaf: 100
[12]; [20]
  Plant response rating, Barnyardgrass: 30
[13]; [20]
  Plant response rating, Morningglory: 0
[14]; [20]
  Plant response rating, Corn: 20
[15]; [20]
  Plant response rating, Pigweed: 90
[16]; [20]
  Plant response rating, Barnyardgrass: 0
